According to publication PMC8944975, “Secretin Receptor as a Target in Gastrointestinal Cancer: Expression Analysis and Ligand Development” (Biomedicines, 2022):
Like-named read-outs stand apart in the source and are kept apart here. Blank lines part the entries; values can stand above or below the molecule they belong to. Where no end group is shown, it is not given here. [ ]: non-standard residue; d: D form.

Experiments:
human SCTR [1] = target: T1, human SCTR (Homo sapiens, UniProt P47872); assay: GloSensor cAMP assay, agonist mode; type: cell-based; set-up: expressed in transfected cells; settings: for Emax: read-out: cAMP Production, Intrinsic Activity
T1 sequence (P47872 23-440): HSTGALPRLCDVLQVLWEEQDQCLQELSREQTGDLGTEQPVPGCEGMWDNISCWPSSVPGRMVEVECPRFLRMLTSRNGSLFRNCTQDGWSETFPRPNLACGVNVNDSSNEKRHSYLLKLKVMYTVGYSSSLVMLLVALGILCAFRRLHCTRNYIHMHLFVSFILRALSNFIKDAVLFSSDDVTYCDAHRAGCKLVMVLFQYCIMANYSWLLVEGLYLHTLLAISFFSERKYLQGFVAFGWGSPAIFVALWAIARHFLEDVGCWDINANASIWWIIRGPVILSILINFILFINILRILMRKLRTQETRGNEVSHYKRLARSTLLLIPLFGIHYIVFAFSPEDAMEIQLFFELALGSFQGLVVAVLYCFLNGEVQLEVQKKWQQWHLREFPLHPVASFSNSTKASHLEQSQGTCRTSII
Experimental: Analysis of downstream signaling of activated SCTR via Gαs G-protein subunits was performed by monitoring intracellular cAMP utilizing the GloSensor system (Promega, Walldorf, Germany) in accordance with the supplier protocol. Measurements were performed using the EnVision Analyzer (PerkinElmer, Rodgau, Germany). For evaluation, concentration–response curves (signal-to-noise ratios plotted) employing the derived statistical mean and SD for estimation of the respective EC50 were calculated using Spotfire Decision Site (TIBCO, Palo Alto, CA, USA). For the analysis of antagonists, a modified protocol was used. Treatment of cells and dilution of the potential antagonist was performed as previously described. Ligand dilutions were added to cells and incubated at room temperature for 5 min. Successively, secretin was added at a final concentration of 0.5 nM for an additional 15 min at room temperature. The emitted chemiluminescence, which correlates with the cAMP concentration, was detected with suitable filters. Evaluation of data was performed as previously described with a calculation of half-maximal inhibitory concentration (IC50).

[2] = in vivo; cited from earlier work
From the text: Due to their vulnerability towards proteolytic degradation, most peptide hormones have short half-lives of only a few minutes. […] To chemically stabilize a peptide ligand by the introduction of artificial amino acids, the amino acid positions crucial for its activity need to be identified. The experimental strategy included design and synthesis of a library of secretin variants that would contain single amino acid substitutions as well as truncations on either end. To characterize a large number of individual peptides ...

human SCTR [3] = target: T1, human SCTR; assay: β-arr2-GFP translocation assay run in antagonist mode; type: cell-based; set-up: expressed in transfected cells; host or cells: U2OS (human osteosarcoma), stably co-transfected with β-arrestin2-GFP
From the text: (§1) U2OS-SCTR/β-arr2-GFP: human osteosarcoma cell line U2OS (purchased from ATCC/LGC Standards, Wesel, Germany) were stably transfected with plasmids encoding SCTR (Homo sapiens) and the fusion protein β-arrestin2-green fluorescent protein (GFP) (Rattus norvegicus-Aequorea victoria) (β-arr2-GFP).
For analysis of antagonistic effects on SCTR, a slightly modified protocol of the β-arr2-GFP translocation was used. […] For analysis, cells were terminally fixed and permeabilized as previously described. The additional monitoring of IDCC fluorescence in the near-infrared channel (667 nm) provided another measure for receptor binding and activation.

human SCTR [4] = target: T1, human SCTR; assay: agonist-induced β-arr2-GFP translocation; type: cell-based; set-up: expressed in transfected cells; host or cells: U2OS (human osteosarcoma), stably co-transfected with β-arrestin2-GFP; settings: Supplementary Tables S1 and S2, decimal comma, '-' not detectable (Figure 4); for β-arrestin2-GFP agonism efficacy: % of wild-type secretin; for EC50: U2OS-SCTR/β-arr2-GFP cells, 20 min at 37 °C, mean of at least three independent experiments in duplicates, read-out: β-arrestin2-GFP agonism potency
From the text: as §1
To evaluate reactivity of human SCTR exposed to different ligand variants, intracellular translocation of a fusion protein of β-arrestin2 and green fluorescent protein was utilized. For evaluation of activation, receptor-mediated recruitment of cytoplasmic β-arr2-GFP was monitored through its translocation into condensed intracellular vesicles. The extent of translocation events was quantified by determining the increasing granularization of the intracellular fluorescence utilizing an automated high-throughput microscope in combination with computational algorithms to estimate potency (EC50) and efficacy, thus characterizing ligand-SCTR interaction. U2OS-SCTR/β-arr2-GFP cells were seeded in 96-well cell culture plates to 60–80% confluence. On the following day, preceding stimulation, cells were incubated for one hour in serum-free medium. Ligand variants were applied as serial dilutions in assay buffer C1. After preincubation, supernatant was discarded by tapping plates overhead repeatedly. For stimulation, 50 µL of ligand dilution was applied per well in duplicates and incubated for 20 min at 37 °C. Successively, cells were fixed by applying 4% buffered formaldehyde (Herbeta Arzneimittel, Berlin, Germany) for 10 min at room temperature and consecutively permeabilized for 10 min at room temperature with 0.1% TritonX-100 in PBS, containing DAPI (4′,6-Diamidin-2-phenylindol, SigmaAldrich, Deisenhofen, Germany, 1 µg/mL) to counterstain nuclei. Microscopic images were recorded by an IN Cell Analyzer 1000 (GE Healthcare, Reading, UK) with 20× magnification at 5 frames per well in a 96-well format. Image processing was performed with IN Cell Investigator software (GE Healthcare, Reading, UK), applying the provided granularity algorithm. The output of the analysis was indicated as vesicle area/cell and was utilized for calculation of concentration–response curves. Parameters derived from curve fitting included the concentration of half-maximal activity (EC50), and intrinsic activity. Intrinsic activity was normalized defining reaction to non-modified wild type secretin as the 100% curve maximum value.

[5] = system: isolated pancreatic membranes; settings: cited from earlier work
From the text: (§2) Early studies of secretin had shown that its biological activity resides particularly in the amino terminus. […] Despite their lack of activation, these truncated peptides were able to displace native secretin at high concentrations.

[6] = system: pancreatic secretion of both fluid and bicarbonate; settings: cited from earlier work
From the text: as §2

SCTR = settings: variant of rat secretin(5–27); cited from earlier work
From the text: as §2

[7] = target: T2, human secretin receptor (SCTR) (human, UniProt P47872 23-440); assay: radioligand binding; saturation binding of I^125-secretin on U2OS-SCTR membrane isolates; total, unspecific and specific binding
T2 sequence (P47872 23-440): as above

[8] = target: T2, human secretin receptor (SCTR)
[9] = target: T2, human secretin receptor (SCTR); assay: cell-based or functional assay
[10] = GloSensor cAMP assay, at least 3 independent experiments in duplicates
[11] = read-out: IC50, inhibition of β-arr2-GFP translocation (Table 2)
[12] = Supplementary Table S2, GloSensor system, at least three independent experiments in duplicates, decimal comma, read-out: cAMP agonism potency

Emax (human SCTR [1]; [10]): 100%
Molecule: CC(C)C[C@H](NC(=O)CNC(=O)[C@H](CCC(N)=O)NC(=O)[C@H](CC(C)C)NC(=O)[C@H](CC(C)C)NC(=O)[C@H](CCCNC(=N)N)NC(=O)[C@H](CCC(N)=O)NC(=O)[C@H](CC(C)C)NC(=O)[C@H](CCCNC(=N)N)NC(=O)[C@H](C)NC(=O)CNC(=O)[C@H](CCC(=O)O)NC(=O)[C@H](CCCNC(=N)N)NC(=O)[C@H](CC(C)C)NC(=O)[C@H](CCCNC(=N)N)NC(=O)[C@H](CO)NC(=O)[C@H](CC(C)C)NC(=O)[C@H](CCC(=O)O)NC(=O)[C@H](CO)NC(=O)[C@@H](NC(=O)[C@H](Cc1ccccc1)NC(=O)[C@@H](NC(=O)CNC(=O)[C@H](CC(=O)O)NC(=O)[C@H](CO)NC(=O)[C@@H](N)Cc1c[nH]cn1)[C@@H](C)O)[C@@H](C)O)C(=O)N[C@H](C(N)=O)C(C)C [Peptide 1, reference compound]
half-life [2]: 2.5 to 4 min

IC50 (human SCTR [3]; [11]): 1280 ± 703 nM
EC50 (human SCTR [1]; [12]): 22 nM
Molecule: CC(C)C[C@H](NC(=O)CNC(=O)[C@H](CCC(N)=O)NC(=O)[C@H](CC(C)C)NC(=O)[C@H](CC(C)C)NC(=O)[C@H](CCCNC(=N)N)NC(=O)[C@H](CCC(N)=O)NC(=O)[C@H](CC(C)C)NC(=O)[C@H](CCCNC(=N)N)NC(=O)[C@H](C)NC(=O)CNC(=O)[C@H](CCC(=O)O)NC(=O)[C@H](CCCNC(=N)N)NC(=O)[C@H](CC(C)C)NC(=O)[C@H](CCCNC(=N)N)NC(=O)[C@H](CO)NC(=O)[C@H](CC(C)C)NC(=O)[C@H](CCC(=O)O)NC(=O)[C@H](CO)NC(=O)[C@@H](NC(=O)[C@H](Cc1ccccc1)NC(=O)[C@@H](NC(=O)CNC(=O)[C@H](CC(=O)O)NC(=O)[C@@H](N)CO)[C@@H](C)O)[C@@H](C)O)C(=O)N[C@H](C(=O)O)C(C)C [Peptide 115]

IC50 (human SCTR [3]; [11]): 1920 ± 355 nM
EC50 (human SCTR [1]; [12]): 166 nM
Molecule: CC(C)C[C@H](NC(=O)CNC(=O)[C@H](CCC(N)=O)NC(=O)[C@H](CC(C)C)NC(=O)[C@H](CC(C)C)NC(=O)[C@H](CCCNC(=N)N)NC(=O)[C@H](CCC(N)=O)NC(=O)[C@H](CC(C)C)NC(=O)[C@H](CCCNC(=N)N)NC(=O)[C@H](C)NC(=O)CNC(=O)[C@H](CCC(=O)O)NC(=O)[C@H](CCCNC(=N)N)NC(=O)[C@H](CC(C)C)NC(=O)[C@H](CCCNC(=N)N)NC(=O)[C@H](CO)NC(=O)[C@H](CC(C)C)NC(=O)[C@H](CCC(=O)O)NC(=O)[C@H](CO)NC(=O)[C@@H](NC(=O)[C@H](Cc1ccccc1)NC(=O)[C@@H](NC(=O)CN)[C@@H](C)O)[C@@H](C)O)C(=O)N[C@H](C(=O)O)C(C)C [Peptide 117]

IC50 (human SCTR [3]; [11]): > 3000 nM
IC50 (human SCTR [3]; read-out: Inhibition of β-arr2-GFP Translocation, IC50): > 3000 nM
Emax (human SCTR [1]; [10]): 90.6 ± 11.5%
EC50 (human SCTR [1]; GloSensor cAMP assay, at least 3 independent experiments in duplicates, read-out: cAMP Production, EC50): 3370 ± 1570 nM
Molecule: CC(C)C[C@H](NC(=O)CNC(=O)[C@H](CCC(N)=O)NC(=O)[C@H](CC(C)C)NC(=O)[C@H](CC(C)C)NC(=O)[C@H](CCCNC(=N)N)NC(=O)[C@H](CCC(N)=O)NC(=O)[C@H](CC(C)C)NC(=O)[C@H](CCCNC(=N)N)NC(=O)[C@H](C)NC(=O)CNC(=O)[C@H](CCC(=O)O)NC(=O)[C@H](CCCNC(=N)N)NC(=O)[C@H](CC(C)C)NC(=O)[C@H](CCCNC(=N)N)NC(=O)[C@H](CO)NC(=O)[C@H](CC(C)C)NC(=O)[C@H](CCC(=O)O)NC(=O)[C@H](CO)NC(=O)[C@@H](N)[C@@H](C)O)C(=O)N[C@H](C(N)=O)C(C)C [Peptide 120]

IC50 (human SCTR [3]; [11]): 2730 ± 60 nM
EC50 (human SCTR [1]; [12]): > 10000 nM
Molecule: CC(C)C[C@H](NC(=O)CNC(=O)[C@H](CCC(N)=O)NC(=O)[C@H](CC(C)C)NC(=O)[C@H](CC(C)C)NC(=O)[C@H](CCCNC(=N)N)NC(=O)[C@H](CCC(N)=O)NC(=O)[C@H](CC(C)C)NC(=O)[C@H](CCCNC(=N)N)NC(=O)[C@H](C)NC(=O)CNC(=O)[C@H](CCC(=O)O)NC(=O)[C@H](CCCNC(=N)N)NC(=O)[C@H](CC(C)C)NC(=O)[C@H](CCCNC(=N)N)NC(=O)[C@H](CO)NC(=O)[C@H](CC(C)C)NC(=O)[C@H](CCC(=O)O)NC(=O)[C@@H](N)CO)C(=O)N[C@H](C(=O)O)C(C)C [Peptide 121]

EC50 (human SCTR [1]; [12]): 7.63 nM
β-arrestin2-GFP agonism efficacy (human SCTR [4]): 92,23 % Sec
EC50 (human SCTR [4]): 131 nM
Molecule: HSDGTFTSELSRLREGARLQRLL [Peptide 100]

EC50 (human SCTR [1]; [12]): 2.09 nM
β-arrestin2-GFP agonism efficacy (human SCTR [4]): 103,60 % Sec
EC50 (human SCTR [4]): 35.9 nM
Molecule: HSDGTFTSELSRLREGARLQRLLQ [Peptide 99]

EC50 (human SCTR [1]; [12]): 1.55 nM
β-arrestin2-GFP agonism efficacy (human SCTR [4]): 104,47 % Sec
EC50 (human SCTR [4]): 26.5 nM
Molecule: HSDGTFTSELSRLREGARLQRLLQG [Peptide 98]

EC50 (human SCTR [1]; [12]): 0.51 nM
β-arrestin2-GFP agonism efficacy (human SCTR [4]): 109,53 % Sec
EC50 (human SCTR [4]): 8.8 nM
Molecule: HSDGTFTSELSRLREGARLQRLLQGL [Peptide 97]

Molecule: Secretin(2–27): N-terminally truncated secretin variant (amino acids 2–27) of the literature (SDGTFTSELSRLREGARLQRLLQGLV; ends and bridges not checked; UniProt P09683 29-54, looked up, fragment)
effect on cAMP synthesis / agonistic effects, in words [5]: severe reduction on cAMP synthesis

Molecule: [(CH2NH)4,5]secretin
effect on pancreatic secretion, in words [6]: dose-dependently increased pancreatic secretion of both fluid and bicarbonate

Molecule: [I17, R25]-secretin(5–27)
affinity (SCTR): 23 nM

Kd [7]: 0.074 nM
Molecule: ^125I-labelled W27, Y28-secretin (peptide)

cAMP production (GloSensor), agonist mode: EC50 [8]: 3370 nM
cAMP production (GloSensor), agonist mode: intrinsic activity [% of secretin] [8]: 90.6%
Molecule: TSELSRLREGARLQRLLQGLV [peptide 120, secretin(7–27)]

cAMP production (GloSensor), agonist mode: intrinsic activity [% of secretin] [9]: 33.6%
Molecule: [dR]FTSELSRLREAARLQRLLQGLV (ends and bridges not checked) [peptide 136]

cAMP production (GloSensor), agonist mode: intrinsic activity [% of secretin] [9]: 27.5%
Molecule: [dR]FTSELSRLREGARLQRLLAGLV (ends and bridges not checked) [peptide 143]

cAMP production (GloSensor), agonist mode: intrinsic activity [% of secretin] [9]: 31.1%
Molecule: [dR]FTSELSRLREGARLQRLLQALV (ends and bridges not checked) [peptide 144]
